Source: PubChem BioAssay AID2060512 (Molecular Pharmacology Branch, DTP, NCI, 2025)
Values belong to the molecule of their own block, whether it stands above or below them.

Test system: 186277-243-T-J2-PDC complex spheroid viability
Test: Anticancer human tumor 186277-243-T-J2-PDC patient-derived colon adenocarcinoma cell line growth inhibition [GQUAD]
Conditions: for IC50: curve of first compound; for viability, T/C: stronger effect = lower value
Excerpt: DNA G-quadruplex Stabilizer Agents in Combinations in Complex Spheroids
A high-throughput screen of multi-cell type tumor spheroids was designed to identify active combinations of DNA G-quadruplex stabilizer agents and targeted small molecules. Complex spheroids include a stromal component modeled by human endothelial cells (HUVEC) and fibroblasts modeled by human mesenchymal stem cells (MSCs). The concentration ranges selected for each drug and investigational agent were based upon clinically achievable concentrations if the clinical Cmax of the agent was known.
Compounds. The drugs and investigational agents: pidnarulex (CX-5461; NSC782164), APTO-253 (NSC789042), BRACO-19 (NSC847499), peposertib (NSC802822), ceralasertib (NSC780249), elimusertib (NSC800525), camonsertib (NSC841442), AZD-1390 (NSC803789), olaparib (NSC753686), talazoparib (NSC767125), ART-558 (NSC835418), sotorasib (NSC818433), MRTX-1133 (NSC836407), SN-38 (NSC673596), topotecan (NSC609699), etoposide (NSC141540), doxorubicin (NSC123127), gemcitabine (NSC613327), 5-fluorouracil (NSC19893), paclitaxel (NSC125973), vemurafenib (NSC761431), panobinostat (NSC761190), R-306465 (JNJ-16241199; NSC773264), adavosertib (NSC754352), TP-3654 (NSC805149), carboplatin (NSC241240), KSQ-4279 (NSC840948), and staurosporine (NSC755774) were obtained from the National Cancer Institute (NCI) Developmental Therapeutics Program Chemical Repository (34). The FDA-approved anticancer drug set is available from the NCI Developmental Therapeutics Program. […] The stock solutions were prepared in dimethyl sulfoxide (DMSO, Sigma-Aldrich, St. Louis, MO, cat. D2650) at 800-fold the tested concentration and stored at -70 degrees C prior to their use. All drugs and investigational agents were tested over a range starting from a high concentration at or near the clinical Cmax and decreasing in half-log increments. If the clinical Cmax for an agent had not been determined, the highest concentration tested was 10 microM.
2.3 Cell Culture. All cells were maintained in an incubator at 37 degrees C and 5% CO2 with 95% humidity. The PDC lines were cultured according to standard operating procedures established by the NCI PDMR. All PDCs were thawed and cultured in Matrigel-coated flasks prepared with a working solution of 1X Ham's F-12 nutrient mix, without supplementation (Invitrogen, cat. 11765054), 100 U/mL penicillin-streptomycin (Invitrogen, cat. 15140122), and 2.5% Matrigel (Corning Inc., cat. 354248) for the first three passages. The 857933-349-R-J2-PDC line was cultured in 6C/Colon 1B media, which includes advanced DMEM/F-12 (Thermo Fisher Scientific, cat. 12634028), 10 mM HEPES (Thermo Fisher Scientific, cat. 15630080), 1X GlutaMAX supplement (Thermo Fisher Scientific, cat. 35050061), 0.1 mg/mL primocin (InvivoGen, cat. ant-pm-2), 10% defined fetal bovine serum, heat inactivated (HyClone Laboratories Inc., cat. SH30070.03HI), 50% L-WRN conditioned media (ATCC, cat. CRL-3276), 1.25 mM N-Acetyl-L-cysteine (Sigma-Aldrich, cat. A9165), 10 mM nicotinamide (Sigma-Aldrich, cat. N0636), 1X B-27 supplement (Thermo Fisher Scientific, cat. 17504044), 1X N-2 supplement (Thermo Fisher Scientific, cat. 17502048), 10 microM Y-27632 dihydrochloride (Tocris Bioscience, cat. 1254), and 50 ng/mL human EGF recombinant protein (Thermo Fisher Scientific, cat. PHG0311). The 485176-168-R4-J1-PDC line was cultured in Panc media, which includes all 6C/Colon 1B media components plus 100 ng/mL human FGF-10 (Thermo Fisher Scientific, cat. 100-26), 500 nM SB-431542 (Selleckchem, cat. S1067), and gastrin (Tocris, cat. 3006).
[…]

[1] = second compound 0.0316 µM, first compound 0.0316 µM
[2] = second compound 0.0316 µM, first compound 0.316 µM
[3] = second compound 0.1 µM, first compound 0.0316 µM
[4] = second compound 0.1 µM, first compound 0.316 µM
[5] = second compound 0.316 µM, first compound 0.0316 µM
[6] = second compound 0.316 µM, first compound 0.316 µM
[7] = second compound 1 µM, first compound 0.0316 µM
[8] = second compound 1 µM, first compound 0.316 µM
[9] = second compound 3.16 µM, first compound 0.0316 µM
[10] = second compound 3.16 µM, first compound 0.316 µM
[11] = second compound 10 µM, first compound 0.0316 µM
[12] = second compound 10 µM, first compound 0.316 µM
[13] = second compound 0.0316 µM, first compound 0.000999 µM
[14] = second compound 0.0316 µM, first compound 0.00316 µM
[15] = second compound 0.0316 µM, first compound 0.00999 µM
[16] = second compound 0.0316 µM, first compound 0.0999 µM
[17] = second compound 0.1 µM, first compound 0.000999 µM
[18] = second compound 0.1 µM, first compound 0.00316 µM
[19] = second compound 0.1 µM, first compound 0.00999 µM
[20] = second compound 0.1 µM, first compound 0.0999 µM
[21] = second compound 0.316 µM, first compound 0.000999 µM
[22] = second compound 0.316 µM, first compound 0.00316 µM
[23] = second compound 0.316 µM, first compound 0.00999 µM
[24] = second compound 0.316 µM, first compound 0.0999 µM
[25] = second compound 1 µM, first compound 0.000999 µM
[26] = second compound 1 µM, first compound 0.00316 µM
[27] = second compound 1 µM, first compound 0.00999 µM
[28] = second compound 1 µM, first compound 0.0999 µM
[29] = second compound 3.16 µM, first compound 0.000999 µM
[30] = second compound 3.16 µM, first compound 0.00316 µM
[31] = second compound 3.16 µM, first compound 0.00999 µM
[32] = second compound 3.16 µM, first compound 0.0999 µM
[33] = second compound 10 µM, first compound 0.000999 µM
[34] = second compound 10 µM, first compound 0.00316 µM
[35] = second compound 10 µM, first compound 0.00999 µM
[36] = second compound 10 µM, first compound 0.0999 µM
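Further: spheroids exposed to drugs for 7 days.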
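Wherever viability, T/C is given: 100% = DMSO vehicle control viability.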

IC50 (second compound 0.0316 µM): 2430 nM | IC50 (second compound 0.1 µM): 1670 nM | IC50 (second compound 0.316 µM): 1190 nM | IC50 (second compound 1 µM): < 31.6 nM | IC50 (second compound 3.16 µM): < 31.6 nM | IC50 (second compound 10 µM): < 31.6 nM
Compound: CC(C)(O)C1CCC(Nc2ccc3ncc(-c4cccc(C(F)(F)F)c4)n3n2)CC1 (stereo unspecified) + Cc1cnc(CNC(=O)c2c(=O)c3ccc(N4CCCN(C)CC4)nc3n3c2sc2ccccc23)cn1
viability, T/C [1]: 88.7% | viability, T/C (second compound 0.0316 µM, first compound 0.1 µM): 85.8% | viability, T/C [2]: 94.4% | viability, T/C (second compound 0.0316 µM, first compound 1 µM): 75.5% | viability, T/C (second compound 0.0316 µM, first compound 3.16 µM): 43% | viability, T/C (second compound 0.0316 µM, first compound 10 µM): 37.2% | viability, T/C [3]: 81.3% | viability, T/C (second compound 0.1 µM, first compound 0.1 µM): 78.1% | viability, T/C [4]: 77% | viability, T/C (second compound 0.1 µM, first compound 1 µM): 59.6% | viability, T/C (second compound 0.1 µM, first compound 3.16 µM): 37.9% | viability, T/C (second compound 0.1 µM, first compound 10 µM): 34.3% | viability, T/C [5]: 55.5% | viability, T/C (second compound 0.316 µM, first compound 0.1 µM): 49.5% | viability, T/C [6]: 66.8% | viability, T/C (second compound 0.316 µM, first compound 1 µM): 54.2% | viability, T/C (second compound 0.316 µM, first compound 3.16 µM): 25.2% | viability, T/C (second compound 0.316 µM, first compound 10 µM): 20.9% | viability, T/C [7]: 48.5% | viability, T/C (second compound 1 µM, first compound 0.1 µM): 48.2% | viability, T/C [8]: 46.3% | viability, T/C (second compound 1 µM, first compound 1 µM): 43.2% | viability, T/C (second compound 1 µM, first compound 3.16 µM): 24.2% | viability, T/C (second compound 1 µM, first compound 10 µM): 22.1% | viability, T/C [9]: 34.5% | viability, T/C (second compound 3.16 µM, first compound 0.1 µM): 42.2% | viability, T/C [10]: 38.7% | viability, T/C (second compound 3.16 µM, first compound 1 µM): 35.3% | viability, T/C (second compound 3.16 µM, first compound 3.16 µM): 3.82% | viability, T/C (second compound 3.16 µM, first compound 10 µM): 0.12% | viability, T/C [11]: 37.5% | viability, T/C (second compound 10 µM, first compound 0.1 µM): 43.4% | viability, T/C [12]: 37.1% | viability, T/C (second compound 10 µM, first compound 1 µM): 39.7% | viability, T/C (second compound 10 µM, first compound 3.16 µM): 0.2% | viability, T/C (second compound 10 µM, first compound 10 µM): 0.2%

IC50 (second compound 0.0316 µM): > 316 nM | IC50 (second compound 0.1 µM): 263 nM | IC50 (second compound 0.316 µM): 176 nM | IC50 (second compound 1 µM): < 0.999 nM | IC50 (second compound 3.16 µM): < 0.999 nM | IC50 (second compound 10 µM): < 0.999 nM
Compound: CC[C@@]1(O)C(=O)OCc2c1cc1n(c2=O)Cc2cc3c(CN(C)C)c(O)ccc3nc2-1 + Cc1cnc(CNC(=O)c2c(=O)c3ccc(N4CCCN(C)CC4)nc3n3c2sc2ccccc23)cn1
viability, T/C [13]: 95.2% | viability, T/C [14]: 85.6% | viability, T/C [15]: 82.4% | viability, T/C [1]: 77.1% | viability, T/C [16]: 64.4% | viability, T/C [2]: 52.8% | viability, T/C [17]: 79.6% | viability, T/C [18]: 74.4% | viability, T/C [19]: 87.5% | viability, T/C [3]: 60.9% | viability, T/C [20]: 66.6% | viability, T/C [4]: 47.1% | viability, T/C [21]: 68.1% | viability, T/C [22]: 56.5% | viability, T/C [23]: 71.3% | viability, T/C [5]: 70.7% | viability, T/C [24]: 62% | viability, T/C [6]: 36.6% | viability, T/C [25]: 47.9% | viability, T/C [26]: 38.1% | viability, T/C [27]: 49.7% | viability, T/C [7]: 50.1% | viability, T/C [28]: 52.2% | viability, T/C [8]: 38.2% | viability, T/C [29]: 49.6% | viability, T/C [30]: 44.2% | viability, T/C [31]: 46.7% | viability, T/C [9]: 40.7% | viability, T/C [32]: 46.2% | viability, T/C [10]: 27.7% | viability, T/C [33]: 39.6% | viability, T/C [34]: 37.4% | viability, T/C [35]: 47.1% | viability, T/C [11]: 41.8% | viability, T/C [36]: 41.6% | viability, T/C [12]: 36.4%

IC50 (second compound 0.0316 µM): 30.9 nM | IC50 (second compound 0.1 µM): 17.9 nM | IC50 (second compound 0.316 µM): 10.2 nM | IC50 (second compound 1 µM): < 0.999 nM | IC50 (second compound 3.16 µM): < 0.999 nM | IC50 (second compound 10 µM): < 0.999 nM
Compound: Cc1[nH]c2ccccc2c1CCNCc1ccc(/C=C/C(=O)NO)cc1 + Cc1cnc(CNC(=O)c2c(=O)c3ccc(N4CCCN(C)CC4)nc3n3c2sc2ccccc23)cn1
viability, T/C [13]: 108% | viability, T/C [14]: 101% | viability, T/C [15]: 110% | viability, T/C [1]: 48.9% | viability, T/C [16]: 13.6% | viability, T/C [2]: 1.14% | viability, T/C [17]: 77.5% | viability, T/C [18]: 79.7% | viability, T/C [19]: 61.4% | viability, T/C [3]: 36.7% | viability, T/C [20]: 15.4% | viability, T/C [4]: 0.78% | viability, T/C [21]: 58.4% | viability, T/C [22]: 52.8% | viability, T/C [23]: 49.2% | viability, T/C [5]: 34.9% | viability, T/C [24]: 9.31% | viability, T/C [6]: 1.35% | viability, T/C [25]: 40.5% | viability, T/C [26]: 40.9% | viability, T/C [27]: 38.4% | viability, T/C [7]: 20% | viability, T/C [28]: 4.65% | viability, T/C [8]: 0.08% | viability, T/C [29]: 35% | viability, T/C [30]: 38.6% | viability, T/C [31]: 28.3% | viability, T/C [9]: 21.6% | viability, T/C [32]: 0.18% | viability, T/C [10]: 0.11% | viability, T/C [33]: 34.7% | viability, T/C [34]: 36.3% | viability, T/C [35]: 28.8% | viability, T/C [11]: 18.9% | viability, T/C [36]: 0.27% | viability, T/C [12]: 0.24%
